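Interpolation was linear, between the two tested concentrations surrounding the appropriate level; five concentrations were tested over 48 hours in 96-well plates. Abbreviation: GI50, concentration required for 50% inhibition of growth. The concentration for full growth arrest is given as TGI.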
How the values were obtained:
Test in all cases: NCI anticancer screen, dose series, 48 h
HCT-116 colon = system: HCT-116 colon
UO-31 renal = system: UO-31 renal
SF-268 CNS = system: SF-268 CNS
A549 NSCLC = system: A549 NSCLC
SK-MEL-28 melanoma = system: SK-MEL-28 melanoma
HOP-92 NSCLC = system: HOP-92 NSCLC
BT-549 breast = system: BT-549 breast
CAKI-1 renal = system: CAKI-1 renal
HS 578T breast = system: HS 578T breast
DU-145 prostate = system: DU-145 prostate
786-0 renal = system: 786-0 renal
HL-60(TB) leukemia = system: HL-60(TB) leukemia
SNB-75 CNS = system: SNB-75 CNS
NCI/ADR-RES ovarian = system: NCI/ADR-RES ovarian
MDA-MB-231 breast = system: MDA-MB-231 breast
OVCAR-8 ovarian = system: OVCAR-8 ovarian
OVCAR-3 ovarian = system: OVCAR-3 ovarian
HT29 colon = system: HT29 colon
COLO 205 colon = system: COLO 205 colon
CCRF-CEM leukemia = system: CCRF-CEM leukemia
HCC-2998 colon = system: HCC-2998 colon
LOX IMVI melanoma = system: LOX IMVI melanoma
SK-MEL-2 melanoma = system: SK-MEL-2 melanoma
SF-295 CNS = system: SF-295 CNS
ACHN renal = system: ACHN renal
K-562 leukemia = system: K-562 leukemia
U251 CNS = system: U251 CNS
T-47D breast = system: T-47D breast
NCI-H522 lung = system: NCI-H522 lung
SF-539 CNS = system: SF-539 CNS
M14 melanoma = system: M14 melanoma
NCI-H226 lung = system: NCI-H226 lung
NCI-H23 lung = system: NCI-H23 lung
HOP-62 NSCLC = system: HOP-62 NSCLC
SR leukemia = system: SR leukemia
MDA-MB-435 = system: MDA-MB-435
IGROV1 ovarian = system: IGROV1 ovarian
UACC-62 melanoma = system: UACC-62 melanoma
RPMI-8226 leukemia = system: RPMI-8226 leukemia
SNB-19 CNS = system: SNB-19 CNS
TK-10 renal = system: TK-10 renal
MALME-3M melanoma = system: MALME-3M melanoma
SN12C renal = system: SN12C renal
RXF 393 renal = system: RXF 393 renal
NCI-H460 lung = system: NCI-H460 lung
SK-MEL-5 melanoma = system: SK-MEL-5 melanoma
SW-620 colon = system: SW-620 colon
KM12 colon = system: KM12 colon
HCT-15 colon = system: HCT-15 colon
OVCAR-5 ovarian = system: OVCAR-5 ovarian
PC-3 prostate = system: PC-3 prostate
EKVX NSCLC = system: EKVX NSCLC
SK-OV-3 ovarian = system: SK-OV-3 ovarian
OVCAR-4 ovarian = system: OVCAR-4 ovarian
UACC-257 melanoma = system: UACC-257 melanoma
MOLT-4 leukemia = system: MOLT-4 leukemia
A498 renal = system: A498 renal
MCF7 breast = system: MCF7 breast

CC(=O)c1c[nH]c2ccc(-c3ccnc(Nc4ccc(NC(=O)c5cccc(F)c5)c(CN5CCOCC5)c4)n3)cc12
GI50 (HCT-116 colon): 60.8 nM | TGI (HCT-116 colon): 14.7 µM | GI50 (UO-31 renal): 96.1 nM | TGI (UO-31 renal): 1750 nM | GI50 (SF-268 CNS): 225 nM | TGI (SF-268 CNS): 2490 nM | GI50 (A549 NSCLC): 185 nM | TGI (A549 NSCLC): > 35.5 µM | GI50 (SK-MEL-28 melanoma): 233 nM | TGI (SK-MEL-28 melanoma): 4.25 µM | GI50 (HOP-92 NSCLC): 154 nM | TGI (HOP-92 NSCLC): 1170 nM | GI50 (BT-549 breast): 208 nM | TGI (BT-549 breast): 3.97 µM | GI50 (CAKI-1 renal): 52.6 nM | TGI (CAKI-1 renal): 5.02 µM | GI50 (HS 578T breast): 124 nM | TGI (HS 578T breast): 1020 nM | GI50 (DU-145 prostate): 185 nM | TGI (DU-145 prostate): > 100 µM | GI50 (786-0 renal): 157 nM | TGI (786-0 renal): > 26.2 µM | GI50 (HL-60(TB) leukemia): 242 nM | TGI (HL-60(TB) leukemia): 928 nM | GI50 (SNB-75 CNS): 42 nM | TGI (SNB-75 CNS): 342 nM | GI50 (NCI/ADR-RES ovarian): 273 nM | TGI (NCI/ADR-RES ovarian): 4.35 µM | GI50 (MDA-MB-231 breast): 177 nM | TGI (MDA-MB-231 breast): 1300 nM | GI50 (OVCAR-8 ovarian): 255 nM | TGI (OVCAR-8 ovarian): > 100 µM | GI50 (OVCAR-3 ovarian): 95.5 nM | TGI (OVCAR-3 ovarian): 932 nM | GI50 (HT29 colon): 146 nM | GI50 (COLO 205 colon): 63.7 nM | TGI (COLO 205 colon): 317 nM | GI50 (CCRF-CEM leukemia): 134 nM | TGI (CCRF-CEM leukemia): > 100 µM | GI50 (HCC-2998 colon): 292 nM | TGI (HCC-2998 colon): 16.6 µM | GI50 (LOX IMVI melanoma): 60.4 nM | TGI (LOX IMVI melanoma): 450 nM | GI50 (SK-MEL-2 melanoma): 180 nM | TGI (SK-MEL-2 melanoma): 549 nM | GI50 (SF-295 CNS): 249 nM | TGI (SF-295 CNS): 1750 nM | GI50 (ACHN renal): 84.5 nM | TGI (ACHN renal): 3.1 µM | GI50 (K-562 leukemia): 303 nM | TGI (K-562 leukemia): > 100 µM | GI50 (U251 CNS): 218 nM | TGI (U251 CNS): > 21 µM | GI50 (T-47D breast): 223 nM | TGI (T-47D breast): 5.45 µM | GI50 (NCI-H522 lung): 234 nM | TGI (NCI-H522 lung): 1610 nM | GI50 (SF-539 CNS): 80.9 nM | TGI (SF-539 CNS): 457 nM | GI50 (M14 melanoma): 188 nM | TGI (M14 melanoma): 794 nM | GI50 (NCI-H226 lung): 148 nM | TGI (NCI-H226 lung): 1760 nM | GI50 (NCI-H23 lung): 195 nM | TGI (NCI-H23 lung): 1090 nM | GI50 (HOP-62 NSCLC): 221 nM | TGI (HOP-62 NSCLC): 18.7 µM | GI50 (SR leukemia): 36.3 nM | TGI (SR leukemia): > 100 µM | GI50 (MDA-MB-435): 204 nM | TGI (MDA-MB-435): 1470 nM | GI50 (IGROV1 ovarian): 151 nM | TGI (IGROV1 ovarian): 1690 nM | GI50 (UACC-62 melanoma): 127 nM | TGI (UACC-62 melanoma): 430 nM | GI50 (RPMI-8226 leukemia): 325 nM | TGI (RPMI-8226 leukemia): 1350 nM | GI50 (SNB-19 CNS): 218 nM | TGI (SNB-19 CNS): 9.8 µM | GI50 (TK-10 renal): 268 nM | TGI (TK-10 renal): 1950 nM | GI50 (MALME-3M melanoma): 254 nM | TGI (MALME-3M melanoma): 749 nM | GI50 (SN12C renal): 153 nM | TGI (SN12C renal): > 23.3 µM | GI50 (RXF 393 renal): 22.1 nM | TGI (RXF 393 renal): 54 nM | GI50 (NCI-H460 lung): 176 nM | GI50 (SK-MEL-5 melanoma): 135 nM | TGI (SK-MEL-5 melanoma): 463 nM | GI50 (SW-620 colon): 206 nM | TGI (SW-620 colon): 4.82 µM | GI50 (KM12 colon): 89.2 nM | TGI (KM12 colon): 1350 nM | GI50 (HCT-15 colon): 112 nM | GI50 (OVCAR-5 ovarian): 129 nM | TGI (OVCAR-5 ovarian): 1060 nM | GI50 (PC-3 prostate): 224 nM | TGI (PC-3 prostate): 2960 nM | GI50 (EKVX NSCLC): 239 nM | TGI (EKVX NSCLC): 1520 nM | GI50 (SK-OV-3 ovarian): 562 nM | TGI (SK-OV-3 ovarian): > 100 µM | GI50 (OVCAR-4 ovarian): 307 nM | TGI (OVCAR-4 ovarian): 3.07 µM | GI50 (UACC-257 melanoma): 304 nM | TGI (UACC-257 melanoma): 2650 nM | GI50 (MOLT-4 leukemia): 262 nM | TGI (MOLT-4 leukemia): > 100 µM | GI50 (A498 renal): 102 nM | TGI (A498 renal): 380 nM | GI50 (MCF7 breast): 149 nM | TGI (MCF7 breast): 1700 nM

From PubChem BioAssay (NCI)
